From patent publication US20160151335A1, “METHODS OF MODULATING CFTR ACTIVITY” (PROTEOSTASIS THERAPEUTICS, INC., priority 2013, published 2016) come the findings set out here.

Test [1] has as its target T1, ΔF508-CFTR (Homo sapiens, UniProt P13569, DEL508-508).
T1 construct: Primary lung epithelial cells (hBEs) homozygous for the Cystic Fibrosis-causing ΔF508 mutation; endogenous in cells; host or cells: primary lung (bronchial) epithelial cells (hBE) homozygous for ΔF508, differentiated at an air-liquid interface
The test is described as follows: Ussing chamber short-circuit current measurement, CFTRinh-172-inhibitable current. The test is classed as cell-based. The conditions noted are these: 24 h, primary hBE cells homozygous ΔF508, relative to VX-809 (1 uM); for Solo % VX809 (Ussing activity): compound at 10 uM alone; for Combination % VX809 (Ussing activity): compound at 10 uM with VX-809 at 1 uM. The method, then: Primary lung epithelial cells (hBEs) homozygous for the Cystic Fibrosis-causing ΔF508 mutation were differentiated for a minimum of 4 weeks in an air-liquid interface on SnapWell filter plates prior to the Ussing measurements. Cells were apically mucus-washed for 30 minutes prior to treatment with compounds. The basolateral media was removed and replaced with media containing the compound of interest diluted to its final concentration from DMSO stocks. Treated cells were incubated at 37° C. and 5% CO2 for 24 hours. At the end of the treatment period, the cells on filters were transferred to the Ussing chamber and equilibrated for 30 minutes. The short-circuit current was measured in voltage clamp-mode (Vhold=0 mV), and the entire assay was conducted at a temperature of 36° C.-36.5° C. Once the voltages stabilized, the chambers were clamped, and data was recorded by pulse readings every 5 seconds. Following baseline current stabilization, the following additions were applied and the changes in current and resistance of the cells monitored: • 1. Benzamil to the apical chamber to inhibit ENaC sodium channel. • 2. Forskolin to both chambers to activate ΔF508-CFTR by phosphorylation. • 3. Genistein to both chambers to potentiate ΔF508-CFTR channel opening. • 4. CFTRinh-172 to the apical chamber to inhibit ΔF508-CFTR Cl− conductance.
The inhibitable current (that current that is blocked by CFTRinh-172) was measured as the specific activity of the ΔF508-CFTR channel, and increases in response to compound in this activity over that observed in vehicle-treated samples were identified as the correction of ΔF508-CFTR function imparted by the compound tested. ++ indicates activity ≧25% of VX-809 (1 uM) with compound at 10 uM and VX-809 at 1 uM; ** indicates activity ≧200% of VX-809 (1 uM) with compound at 10 uM and VX-809 at 1 uM; ** indicates activity 100-200% of VX-809 (1 uM) with compound at 10 uM and VX-809 at 1 uM; The transepithelial resistance (TER) for these compounds are within 30% of DMSO controls.

Test [2] deals with T1, ΔF508-CFTR. The experiment in a line: hBE equivalent current (Ieq) assay, AUC of equivalent chloride current. The test is classed as cell-based. The conditions noted are these: compound at 10 uM, 24 h, primary hBE cells homozygous ΔF508; AUC increase relative to VX-809 at 1 uM. The method, then: Primary lung epithelial cells homozygous for the Cystic Fibrosis-causing ΔF508 mutation were differentiated for a minimum of 4 weeks in an air-liquid interface on Costar 24 well HTS filter plates prior to the equivalent current (Ieq) measurements. Cells were apically mucus-washed for 30 minutes 24 h prior to treatment with compounds. The basolateral media was removed and replaced with media containing the compound of interest diluted to its final concentration from DMSO stocks. Treated cells were incubated at 37° C. and 5% CO2 for 24 hours. At the end of the treatment period, the media was changed to the Ieq experimental solution for 30 minutes before the experiment and plates are maintained in a CO2-free incubator during this period. The plates containing the cells were then placed in pre-warmed heating blocks at 36° C.±0.5 for 15 minutes before measurements are taken. The transepithelial voltage (VT) and conductance (GT) were measured using a custom 24 channel current clamp (TECC-24) with 24 well electrode manifold. The Ieq assay measurements were made following additions with standardized time periods: • 1. The baseline VT and GT values were measured for approximately 20 minutes. • 2. Benzamil was added to block ENaC for 15 minutes. • 3. Forskolin plus VX-770 were added to maximally activate ΔF508-CFTR for 27 minutes. • 4. Bumetanide was added to inhibit the NaK2Cl cotransporter and shut-off secretion of chloride. The activity data captured was the area under the curve (AUC) for the traces of the equivalent chloride current. The AUC was collected from the time of the forskolin/VX-770 addition until the inhibition by bumetanide addition. Correction in response to compound treatment was scored as the increase in the AUC for compound-treated samples over that of vehicle-treated samples. (++ indicates activity ≧25% run at 10 uM of VX-809 at 1 uM, + indicates activity 10 to ≦25% run at 10 uM of VX-809 at 1 uM.

T1 sequence (P13569 with tags, fused parts or gaps DEL508-508): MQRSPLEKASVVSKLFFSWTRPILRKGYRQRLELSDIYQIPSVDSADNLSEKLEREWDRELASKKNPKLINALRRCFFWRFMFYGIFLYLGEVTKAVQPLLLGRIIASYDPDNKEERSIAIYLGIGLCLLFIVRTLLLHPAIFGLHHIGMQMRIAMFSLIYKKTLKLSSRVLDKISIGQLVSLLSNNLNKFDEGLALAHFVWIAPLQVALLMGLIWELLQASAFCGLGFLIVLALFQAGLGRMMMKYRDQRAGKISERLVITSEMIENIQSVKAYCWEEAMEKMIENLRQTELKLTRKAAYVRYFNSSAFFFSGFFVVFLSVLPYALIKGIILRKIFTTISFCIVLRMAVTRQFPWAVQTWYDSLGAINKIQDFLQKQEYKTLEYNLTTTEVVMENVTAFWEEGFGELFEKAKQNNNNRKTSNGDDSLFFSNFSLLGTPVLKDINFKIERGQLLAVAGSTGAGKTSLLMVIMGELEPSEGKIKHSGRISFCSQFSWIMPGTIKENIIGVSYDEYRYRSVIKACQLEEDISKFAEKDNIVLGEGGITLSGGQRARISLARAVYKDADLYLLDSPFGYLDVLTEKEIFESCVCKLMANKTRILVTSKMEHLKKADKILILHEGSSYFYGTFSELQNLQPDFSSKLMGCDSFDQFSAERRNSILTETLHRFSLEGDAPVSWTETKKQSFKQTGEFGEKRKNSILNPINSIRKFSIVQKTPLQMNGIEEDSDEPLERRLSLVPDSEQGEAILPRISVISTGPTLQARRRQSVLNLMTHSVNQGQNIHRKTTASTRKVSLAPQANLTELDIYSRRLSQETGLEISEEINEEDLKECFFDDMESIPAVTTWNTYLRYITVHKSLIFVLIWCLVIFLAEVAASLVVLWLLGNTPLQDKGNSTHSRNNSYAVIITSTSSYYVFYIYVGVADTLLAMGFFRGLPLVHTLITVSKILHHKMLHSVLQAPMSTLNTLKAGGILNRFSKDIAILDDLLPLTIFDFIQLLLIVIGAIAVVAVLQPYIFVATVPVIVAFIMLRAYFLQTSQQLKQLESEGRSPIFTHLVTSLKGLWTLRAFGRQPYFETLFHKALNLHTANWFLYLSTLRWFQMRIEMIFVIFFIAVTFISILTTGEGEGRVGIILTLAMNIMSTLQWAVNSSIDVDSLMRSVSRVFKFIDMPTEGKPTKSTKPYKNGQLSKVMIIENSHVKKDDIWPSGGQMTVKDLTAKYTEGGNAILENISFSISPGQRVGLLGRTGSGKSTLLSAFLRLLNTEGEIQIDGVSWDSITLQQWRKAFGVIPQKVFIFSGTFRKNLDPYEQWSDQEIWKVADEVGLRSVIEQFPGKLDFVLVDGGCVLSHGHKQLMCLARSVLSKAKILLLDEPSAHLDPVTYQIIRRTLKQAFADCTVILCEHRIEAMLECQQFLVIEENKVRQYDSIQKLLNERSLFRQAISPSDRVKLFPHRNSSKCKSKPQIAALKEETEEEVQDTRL

As for `Cc1cn(CCNC(=O)c2cc(-c3ccccc3)on2)nn1` [Compound 9], the “Solo % VX809 (Ussing activity)” value on ΔF508-CFTR [1] is “++ (++ indicates activity ≧25% of VX-809 (1 uM) with compound at 10 uM and VX-809 at 1 uM)”.

For the compound `O=C(NCCCn1ccnc1)c1cc(-c2ccccc2)on1` [Compound 16], on ΔF508-CFTR [1], the “Solo % VX809 (Ussing activity)” value is “++ (++ indicates activity ≧25% of VX-809 (1 uM) with compound at 10 uM and VX-809 at 1 uM)”; the “Combination % VX809 (Ussing activity)” value was “** (** indicates activity ≧200% of VX-809 (1 uM) with compound at 10 uM and VX-809 at 1 uM)”. Moreover, the “Ieq hBE Activity” value at ΔF508-CFTR [2] is recorded as “++ (++ indicates activity ≧25% run at 10 uM of VX-809 at 1 uM)”.

On to `Cn1ccnc1SCCNC(=O)c1cc(-c2ccccc2)on1` [Compound 18], for which, on ΔF508-CFTR [1], the “Solo % VX809 (Ussing activity)” value was “++ (++ indicates activity ≧25% of VX-809 (1 uM) with compound at 10 uM and VX-809 at 1 uM)”; the “Combination % VX809 (Ussing activity)” value was “** (** indicates activity ≧200% of VX-809 (1 uM) with compound at 10 uM and VX-809 at 1 uM)”. Besides, the “Ieq hBE Activity” value at ΔF508-CFTR [2] was “++ (++ indicates activity ≧25% run at 10 uM of VX-809 at 1 uM)”.

Take `O=C(Nc1cccnc1)c1cc(-c2ccccc2)on1` [Compound 345]: at ΔF508-CFTR [2], the “Ieq hBE Activity” value was “+ (+ indicates activity 10 to ≦25% run at 10 uM of VX-809 at 1 uM)”.

Consider `O=C(NCCCCO)c1cc(-c2cccs2)on1` [Compound 349], for which the “Ieq hBE Activity” value at ΔF508-CFTR [2] is reported as “++ (++ indicates activity ≧25% run at 10 uM of VX-809 at 1 uM)”.

`COCc1nc(CNC(=O)c2cc(-c3ccccc3)on2)no1` [Compound 372]: the “Ieq hBE Activity” value on ΔF508-CFTR [2] is listed as “++ (++ indicates activity ≧25% run at 10 uM of VX-809 at 1 uM)”.

As to `O=C(NCCNC(=O)c1cc(-c2ccccc2)on1)c1cccnc1` [Compound 373], the “Ieq hBE Activity” value at ΔF508-CFTR [2] is given as “++ (++ indicates activity ≧25% run at 10 uM of VX-809 at 1 uM)”.

On to `CCc1ncc(CCNC(=O)c2cc(-c3ccccc3)on2)s1` [Compound 374], for which the “Ieq hBE Activity” value on ΔF508-CFTR [2] is “+ (+ indicates activity 10 to ≦25% run at 10 uM of VX-809 at 1 uM)”.

`Cc1ncc(NCCNC(=O)c2cc(-c3ccccc3)on2)[nH]c1=O` [Compound 375]: the “Ieq hBE Activity” value on ΔF508-CFTR [2] is “+ (+ indicates activity 10 to ≦25% run at 10 uM of VX-809 at 1 uM)”.

As for `O=C(NCCn1ccnn1)c1cc(-c2ccccc2)on1` [Compound 376], the “Ieq hBE Activity” value at ΔF508-CFTR [2] was “++ (++ indicates activity ≧25% run at 10 uM of VX-809 at 1 uM)”.

On to `O=C(NCCn1ccnn1)c1cc(-c2cccs2)on1` [Compound 377], for which, on ΔF508-CFTR [2], the “Ieq hBE Activity” value is “++ (++ indicates activity ≧25% run at 10 uM of VX-809 at 1 uM)”.
